The test system of assay [1] is H3K27me3 in WSU-DLCL2 cells. In words: WSU-DLCL2 methylation assay (H3K27me3 ELISA). The format is cell-based. As to conditions: Homo sapiens, WSUDLCL2, Table 3B, 96 hours, read-out: ELISA H3K27me3 IC50. On the technique in general: In an ELISA, binding on a coated surface is turned into a signal by an enzyme label.
Source text: WSU-DLCL2 suspension cells were purchased from DSMZ (German Collection of Microorganisms and Cell Cultures, Braunschweig, Germany). RPMI/Glutamax Medium, Penicillin-Streptomycin, Heat Inactivated Fetal Bovine Serum, and D-PBS were purchased from Life Technologies, Grand Island, N.Y., USA. Extraction Buffer and Neutralization Buffer (5×) were purchased from Active Motif, Carlsbad, Calif., USA. Rabbit anti-Histone H3 antibody was purchased from Abcam, Cambridge, Mass., USA. Rabbit anti-H3K27me3 and HRP-conjugated anti-rabbit-IgG were purchased from Cell Signaling Technology, Danvers, Mass., USA. TMB “Super Sensitive” substrate was sourced from BioFX Laboratories, Owings Mills, Md., USA. IgG-free Bovine Serum Albumin was purchased from Jackson ImmunoResearch, West Grove, Pa., USA. PBS with Tween (10×PBST) was purchased from KPL, Gaithersburg, Md., USA. Sulfuric Acid was purchased from Ricca Chemical, Arlington, Tex., USA. Immulon ELISA plates were purchased from Thermo, Rochester, N.Y., USA. V-bottom cell culture plates were purchased from Corning Inc., Corning, N.Y., USA. V-bottom polypropylene plates were purchased from Greiner Bio-One, Monroe, N.C., USA.
WSU-DLCL2 cells were seeded in assay medium at a concentration of 50,000 cells per mL to a 96-well V-bottom cell culture plate with 200 μL per well. […] Plates were incubated on a titer-plate shaker at 37° C., 5% CO2 for 96 hours. After four days of incubation, plates were spun at 241×g for five minutes and medium was aspirated gently from each well of cell plate without disturbing cell pellet. Pellet was resuspended in 200 μL DPBS and plates were spun again at 241×g for five minutes. The supernatant was aspirated and cold (4° C.) Extraction buffer (100 μL) was added per well. Plates were incubated at 4° C. on orbital shaker for two hours. […] Supernatant (80 μL per well) was transferred to its respective well in 96 well V-bottom polypropylene plate. Neutralization Buffer 5× (20 μL per well) was added to V-bottom polypropylene plate containing supernatant. V-bottom polypropylene plates containing crude histone preparation (CHP) were incubated on orbital shaker×five minutes. Crude Histone Preparations were added (2 μL per well) to each respective well into duplicate 96 well ELISA plates containing 100 μL Coating Buffer (1×PBS+BSA 0.05% w/v). Plates were sealed and incubated overnight at 4° C. The following day, plates were washed three times with 300 μL per well 1×PBST. […] For H3K27me3 detection, 100 μL of HRP conjugated anti-rabbit IgG antibody diluted to 1:4000 in ELISA diluent was added per well. Plates were incubated at room temperature for 90 minutes. […] TMB substrate 100 μL was added per well. Histone H3 plates were incubated for five minutes at room temperature. H3K27me3 plates were incubated for 10 minutes at room temperature. The reaction was stopped with sulfuric acid 1N (100 μL per well). Absorbance for each plate was read at 450 nm.
Each plate included eight control wells of DMSO only treatment (Minimum Inhibition) as well as eight control wells for maximum inhibition (Background wells).
The average of the ratio values for each control type was calculated and used to determine the percent inhibition for each test well in the plate. […] Percent inhibition was determined and IC50 curves were generated using duplicate wells per concentration of compound.
The next assay deals with WSU-DLCL2 cells. Description: Cell proliferation analysis (WSU-DLCL2, Cell Titer Glo). As to conditions: Homo sapiens, WSUDLCL2, Table 3B, 6 days, read-out: WSU proliferation IC50. The format is cell-based. A general note: ATP-based viability assays read luminescence as a measure of living cells.
The target in assay [2] is wild-type EZH2 (PRC2 complex) (Homo sapiens (Human), UniProt Q15910). In words: PRC2 enzyme assay on peptide substrates (wild-type EZH2). As to conditions: read-out: WT EZH2 IC50; Table 3B; wild-type PRC2 enzyme, peptide substrate.

Results on 23 compounds are retold here after patent publication US11642348B2, “Substituted benzene compounds” (Epizyme, Inc., priority 2012, dated 2023).

wild-type EZH2 (PRC2 complex), sequence (Q15910 other isoform, or with tags, fused parts or gaps): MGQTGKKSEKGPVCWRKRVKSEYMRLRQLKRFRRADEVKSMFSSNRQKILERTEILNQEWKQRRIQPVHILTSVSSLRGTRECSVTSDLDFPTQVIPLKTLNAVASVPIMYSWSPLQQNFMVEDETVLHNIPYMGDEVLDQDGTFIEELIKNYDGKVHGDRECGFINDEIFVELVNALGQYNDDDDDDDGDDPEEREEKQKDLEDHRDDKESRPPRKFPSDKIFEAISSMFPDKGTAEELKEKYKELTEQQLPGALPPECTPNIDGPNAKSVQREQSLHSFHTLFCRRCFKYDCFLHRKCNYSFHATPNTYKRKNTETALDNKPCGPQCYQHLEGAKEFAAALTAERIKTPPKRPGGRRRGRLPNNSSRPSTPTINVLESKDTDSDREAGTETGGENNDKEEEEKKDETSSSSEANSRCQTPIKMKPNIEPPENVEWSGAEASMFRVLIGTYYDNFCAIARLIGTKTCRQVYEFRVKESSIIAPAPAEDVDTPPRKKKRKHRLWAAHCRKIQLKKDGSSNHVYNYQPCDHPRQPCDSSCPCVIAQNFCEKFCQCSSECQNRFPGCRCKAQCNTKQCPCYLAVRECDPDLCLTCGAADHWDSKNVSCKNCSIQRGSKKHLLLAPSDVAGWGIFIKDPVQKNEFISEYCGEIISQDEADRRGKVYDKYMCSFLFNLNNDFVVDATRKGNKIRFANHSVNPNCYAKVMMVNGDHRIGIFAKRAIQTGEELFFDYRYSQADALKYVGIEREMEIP
wild-type EZH2 (PRC2 complex), sequence (O75530 whole entry partner): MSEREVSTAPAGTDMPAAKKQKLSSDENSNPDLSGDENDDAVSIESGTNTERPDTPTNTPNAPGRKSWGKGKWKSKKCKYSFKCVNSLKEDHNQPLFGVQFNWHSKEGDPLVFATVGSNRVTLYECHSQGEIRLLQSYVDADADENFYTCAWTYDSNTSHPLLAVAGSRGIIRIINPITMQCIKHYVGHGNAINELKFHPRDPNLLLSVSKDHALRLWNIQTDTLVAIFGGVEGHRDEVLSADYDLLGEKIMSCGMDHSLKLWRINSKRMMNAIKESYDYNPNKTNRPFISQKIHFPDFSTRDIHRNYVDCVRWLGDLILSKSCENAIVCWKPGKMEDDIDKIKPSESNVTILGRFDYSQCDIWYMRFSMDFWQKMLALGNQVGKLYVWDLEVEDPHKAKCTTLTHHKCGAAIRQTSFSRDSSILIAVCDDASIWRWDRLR
wild-type EZH2 (PRC2 complex), sequence (Q15022 whole entry partner): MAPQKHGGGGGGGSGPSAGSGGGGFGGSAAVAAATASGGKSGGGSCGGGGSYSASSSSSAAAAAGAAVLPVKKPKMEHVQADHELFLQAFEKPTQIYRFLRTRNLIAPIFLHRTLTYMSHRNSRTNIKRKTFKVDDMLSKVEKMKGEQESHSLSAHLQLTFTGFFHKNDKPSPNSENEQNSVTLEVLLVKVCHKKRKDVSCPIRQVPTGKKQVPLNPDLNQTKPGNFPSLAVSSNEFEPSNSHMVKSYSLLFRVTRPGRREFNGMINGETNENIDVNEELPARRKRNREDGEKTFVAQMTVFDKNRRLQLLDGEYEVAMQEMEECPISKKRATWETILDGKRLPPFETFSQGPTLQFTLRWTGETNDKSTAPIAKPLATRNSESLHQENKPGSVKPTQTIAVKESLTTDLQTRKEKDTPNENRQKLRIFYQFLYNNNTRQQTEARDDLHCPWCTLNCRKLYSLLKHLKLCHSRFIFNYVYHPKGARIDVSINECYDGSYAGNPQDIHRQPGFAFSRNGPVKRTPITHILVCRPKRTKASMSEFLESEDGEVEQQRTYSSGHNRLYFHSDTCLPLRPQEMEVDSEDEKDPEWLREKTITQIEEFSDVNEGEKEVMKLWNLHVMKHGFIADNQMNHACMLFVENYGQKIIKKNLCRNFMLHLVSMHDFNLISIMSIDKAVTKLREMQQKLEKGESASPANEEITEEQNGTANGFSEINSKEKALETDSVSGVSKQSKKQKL
wild-type EZH2 (PRC2 complex), sequence (Q09028 whole entry partner): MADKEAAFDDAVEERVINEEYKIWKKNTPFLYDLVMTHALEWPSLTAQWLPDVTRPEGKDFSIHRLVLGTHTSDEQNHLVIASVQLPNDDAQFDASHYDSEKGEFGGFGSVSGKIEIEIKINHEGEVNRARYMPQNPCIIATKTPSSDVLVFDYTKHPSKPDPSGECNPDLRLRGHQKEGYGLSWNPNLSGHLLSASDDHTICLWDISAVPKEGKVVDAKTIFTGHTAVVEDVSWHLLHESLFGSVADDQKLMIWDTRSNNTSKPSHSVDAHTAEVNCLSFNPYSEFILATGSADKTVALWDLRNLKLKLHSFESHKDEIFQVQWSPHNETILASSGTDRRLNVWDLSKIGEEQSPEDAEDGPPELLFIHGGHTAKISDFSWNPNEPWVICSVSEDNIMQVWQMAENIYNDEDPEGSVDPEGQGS

As for `CCN(c1cc(F)cc(C(=O)NCc2c(C)cc(C)n(C)c2=O)c1C)C1C[C@@H](C)N[C@H](C)C1` (stereo partly drawn) [Compound 113], the IC50 is greater than 25000 nM in assay [1], greater than 20000 nM in the assay with WSU-DLCL2 cells and 1220 nM in assay [2].
Turning to `CCN(c1cc(F)cc(C(=O)NCc2c(C)c(F)c(C)n(C)c2=O)c1C)C1C[C@@H](C)N[C@H](C)C1` (stereo partly drawn) [Compound 115], the IC50 was greater than 25000 nM in assay [1], greater than 20000 nM in the assay with WSU-DLCL2 cells and 497 nM in assay [2].
Take `CCCc1cc(C)[nH]c(=O)c1CNC(=O)c1cc(F)cc(N(CC)C2C[C@@H](C)N[C@H](C)C2)c1C` (stereo partly drawn) [Compound 116]: the IC50 is greater than 25000 nM in assay [1], 13200 nM with WSU-DLCL2 cells and 132 nM in assay [2].
For the compound `CCN(c1cc(F)cc(C(=O)NCc2c(C(C)C)cc(C)[nH]c2=O)c1C)C1C[C@@H](C)N[C@H](C)C1` (stereo partly drawn) [Compound 117], the IC50 in assay [1] was 8960 nM; in the assay on WSU-DLCL2 cells, greater than 20000 nM; in assay [2], 350 nM.
Take `CCN(c1cc(F)cc(C(=O)NCc2c(C)cc(C)[nH]c2=O)c1C)C1C[C@@H](C)N(C)[C@H](C)C1` (stereo partly drawn) [Compound 118]: the values for the IC50 (in assay [1]; in the assay on WSU-DLCL2 cells; in assay [2]) were 11700 nM, 3950 nM and 36.3 nM, respectively.
For `CCN(c1cc(F)cc(C(=O)NCc2c(C)cc(C)[nH]c2=O)c1C)C1C[C@@H](C)N(CC)[C@H](C)C1` (stereo partly drawn) [Compound 119], the IC50 in assay [1] is 11300 nM; with WSU-DLCL2 cells it was 3380 nM; in assay [2], 18.5 nM.
For `CCN(c1cc(-c2ccc(OC)nc2)cc(C(=O)NCc2c(C)cc(C)[nH]c2=O)c1C)C1C[C@@H](C)N[C@H](C)C1` (stereo partly drawn) [Compound 120] the same measures were 1430 nM, 1380 nM and less than 10 nM.
For `CCN(c1cc(-c2ccc(CN3CCOCC3)nc2)cc(C(=O)NCc2c(C)cc(C)[nH]c2=O)c1C)C1C[C@@H](C)N[C@H](C)C1` (stereo partly drawn) [Compound 121] the same measures were 13900 nM, 3830 nM and less than 10 nM.
Consider `CCN(c1cc(-c2ccc(CN3CCN(C)CC3)nc2)cc(C(=O)NCc2c(C)cc(C)[nH]c2=O)c1C)C1C[C@@H](C)N[C@H](C)C1` (stereo partly drawn) [Compound 122], for which the IC50 in assay [1] was greater than 25000 nM; with WSU-DLCL2 cells, 7560 nM; in assay [2], less than 10 nM.
The matching figures for `CCN(c1cc(-c2ccc(CN3CCNCC3)nc2)cc(C(=O)NCc2c(C)cc(C)[nH]c2=O)c1C)C1C[C@@H](C)N[C@H](C)C1` (stereo partly drawn) [Compound 123]: greater than 25000 nM, 7900 nM and less than 10 nM.
As to `CCN(c1cc(-c2cnc(OC)cn2)cc(C(=O)NCc2c(C(C)C)cc(C)[nH]c2=O)c1C)C1CCOCC1` [Compound 126], the results for the IC50 (in assay [1]; with WSU-DLCL2 cells; in assay [2]) were 2030 nM, 906 nM and less than 10 nM, respectively.
For the compound `CCN(c1cc(-c2cnc(OC(C)C)cn2)cc(C(=O)NCc2c(C)cc(C)[nH]c2=O)c1C)C1CCOCC1` [Compound 127], the IC50 is 525 nM in assay [1], 717 nM in the assay with WSU-DLCL2 cells and less than 10 nM in assay [2].
Regarding `CCN(c1cc(-c2cnc(C(F)(F)F)cn2)cc(C(=O)NCc2c(C)cc(C)[nH]c2=O)c1C)C1CCOCC1` [Compound 128], the IC50 in assay [1] is 1550 nM; in the assay with WSU-DLCL2 cells it was 975 nM; in assay [2], less than 10 nM.
`CCN(c1cc(-c2cnc(OC3CN(C)C3)cn2)cc(C(=O)NCc2c(C)cc(C)[nH]c2=O)c1C)C1CCOCC1` [Compound 131]: the IC50 in assay [1] was 306 nM; in the assay on WSU-DLCL2 cells, 194 nM; in assay [2], less than 10 nM.
The matching figures for `CCN(c1cc(-c2cnc(OC3CCN(C)CC3)cn2)cc(C(=O)NCc2c(C)cc(C)[nH]c2=O)c1C)C1CCOCC1` [Compound 132]: 177 nM, 526 nM and 20 nM.
Take `CCN(c1cc(-c2ccc(CN3CCCN(C)CC3)nc2)cc(C(=O)NCc2c(C)cc(C)[nH]c2=O)c1C)[C@H]1CC[C@H](N(C)C)CC1` [Compound 146]: the IC50 in assay [1] is 161 nM; in the assay with WSU-DLCL2 cells, 217 nM; in assay [2], less than 10 nM.
For the compound `CCN(c1cc(-c2ccc(CN3CCC[C@H](O)C3)nc2)cc(C(=O)NCc2c(C)cc(C)[nH]c2=O)c1C)[C@H]1CC[C@H](N(C)C)CC1` [Compound 147], the IC50 in assay [1] is 74.3 nM; in the assay on WSU-DLCL2 cells, 116 nM; in assay [2] it was less than 10 nM.
Turning to `CCN(c1cc(-c2ccc(CN3CC[C@H](O)C3)nc2)cc(C(=O)NCc2c(C)cc(C)[nH]c2=O)c1C)[C@H]1CC[C@H](N(C)C)CC1` [Compound 148, N-((4,6-Dimethyl-2-oxo-1,2-dihydropyridin-3-yl)methyl)-3-((4-trans-(dimethylamino)cyclohexyl)(ethyl)amino)-5-(6-(((S)-3-hydroxypyrrolidin-1-yl)methyl)pyridin-3-yl)-2-methylbenzamide], the IC50 in assay [1] was 504 nM; in the assay with WSU-DLCL2 cells, 243 nM; in assay [2], less than 10 nM.
The matching figures for `CCN(c1cc(-c2cnc(N3CCN(C)CC3)cn2)cc(C(=O)NCc2c(C)cc(C)[nH]c2=O)c1C)[C@H]1CC[C@H](N(C)C)CC1` [Compound 149]: 20 nM, 316 nM and less than 10 nM.
Take `CCN(c1cc(-c2ccc(CN3CC[C@H](O)C3)nc2)cc(C(=O)NCc2c(C(C)C)cc(C)[nH]c2=O)c1C)[C@H]1CC[C@H](N(C)C)CC1` [Compound 150]: the IC50 is 377 nM in assay [1], 361 nM in the assay on WSU-DLCL2 cells and less than 10 nM in assay [2].
Take `CCN(c1cc(-c2ccc(CN3CC(O)C3)nc2)cc(C(=O)NCc2c(C)cc(C)[nH]c2=O)c1C)[C@H]1CC[C@H](N(C)C)CC1` [Compound 151]: the IC50 in assay [1] is 618 nM; in the assay with WSU-DLCL2 cells, 682 nM; in assay [2] it was less than 10 nM.
As to `CCN(c1cc(-c2ccc(COC)nc2)cc(C(=O)NCc2c(C)cc(C)[nH]c2=O)c1C)[C@H]1CC[C@H](N(C)C)CC1` [Compound 152], the IC50 in assay [1] is 60 nM; in the assay with WSU-DLCL2 cells, 412 nM; in assay [2], 18 nM.
The matching figures for `CCN(c1cc(-c2ccc(C(=O)NCCO)cc2)cc(C(=O)NCc2c(C(C)C)cc(C)[nH]c2=O)c1C)C1CCOCC1` [Compound 156]: 684 nM, 890 nM and less than 10 nM.
